pEC50: −log10 of the molar value.
assay: Inhibition of Aurora-B in human HCT116 cells by FACS-based endoreduplication assay

**Q.** With COc1cc2c(Oc3ccc(-c4nc5ccccc5s4)cc3)ncnc2cc1OCCCN1CCN(C)CC1 [2-(4-(6-methoxy-7-(3-(4-methylpiperazin-1-yl)propoxy)quinazolin-4-yloxy)phenyl)benzo[d]thiazole] as the compound, how does the pEC50 read?
**A.** < 5.00

**Q.** With COc1cc2c(Oc3ccc(-c4nc5ccccc5s4)cc3)ncnc2cc1OCCCN1CCCC1 [2-(4-(6-methoxy-7-(3-(pyrrolidin-1-yl)propoxy)quinazolin-4-yloxy)phenyl)benzo[d]thiazole] as the compound, how does the pEC50 read?
**A.** < 5.00

**Q.** With COc1cc2c(Nc3ccc(-c4nc5ccccc5s4)c(Cl)c3)ncnc2cc1OCCCN1CCN(C)CC1 [N-(4-(benzo[d]thiazol-2-yl)-3-chlorophenyl)-6-methoxy-7-(3-(4-methylpiperazin-1-yl)propoxy)quinazolin-4-amine] as the compound, how does the pEC50 read?
**A.** < 5.00

**Q.** With COc1cc2c(Nc3ccc(-c4nc5ccccc5s4)c(F)c3)ncnc2cc1OCCCN1CCN(C)CC1 [N-(4-(benzo[d]thiazol-2-yl)-3-fluorophenyl)-6-methoxy-7-(3-(4-methylpiperazin-1-yl)propoxy)quinazolin-4-amine] as the compound, how does the pEC50 read?
**A.** < 5.00

**Q.** With COc1cc2c(Nc3ccc(-c4nc5cc(Cl)ccc5s4)cc3)ncnc2cc1OCCCN1CCN(C)CC1 [N-[4-(6''-Chlorobenzo[d]thiazol-2''-yl)phenyl]-6'-methoxy-7'-[3-(4-methylpiperazin-1-yl)propoxy]quinazolin-4'-amine] as the compound, how does the pEC50 read?
**A.** < 5.00

— BindingDB's records for doi:10.1016/j.bmc.2009.07.047 (4Sc, 2009)
